This note sets out measurements from publication PMC4854315, “Discovery of a novel allosteric inhibitor-binding site in ERK5: comparison with the canonical kinase hinge ATP-binding site” (Acta Crystallographica. Section D, Structural Biology, 2016).

As a reminder, the inhibition is the drop in the measured response relative to a control, in per cent.

What all share (assay): Z'-LYTE kinase panel
What all share (type): biochemical

For one assay, the target named is T1, BRSK1 (SAD1) (Homo sapiens, UniProt Q8TDC3).
T1 construct: purchased ThermoFisher (SelectScreen, Z'-LYTE)
T1 sequence (Q8TDC3 1-778): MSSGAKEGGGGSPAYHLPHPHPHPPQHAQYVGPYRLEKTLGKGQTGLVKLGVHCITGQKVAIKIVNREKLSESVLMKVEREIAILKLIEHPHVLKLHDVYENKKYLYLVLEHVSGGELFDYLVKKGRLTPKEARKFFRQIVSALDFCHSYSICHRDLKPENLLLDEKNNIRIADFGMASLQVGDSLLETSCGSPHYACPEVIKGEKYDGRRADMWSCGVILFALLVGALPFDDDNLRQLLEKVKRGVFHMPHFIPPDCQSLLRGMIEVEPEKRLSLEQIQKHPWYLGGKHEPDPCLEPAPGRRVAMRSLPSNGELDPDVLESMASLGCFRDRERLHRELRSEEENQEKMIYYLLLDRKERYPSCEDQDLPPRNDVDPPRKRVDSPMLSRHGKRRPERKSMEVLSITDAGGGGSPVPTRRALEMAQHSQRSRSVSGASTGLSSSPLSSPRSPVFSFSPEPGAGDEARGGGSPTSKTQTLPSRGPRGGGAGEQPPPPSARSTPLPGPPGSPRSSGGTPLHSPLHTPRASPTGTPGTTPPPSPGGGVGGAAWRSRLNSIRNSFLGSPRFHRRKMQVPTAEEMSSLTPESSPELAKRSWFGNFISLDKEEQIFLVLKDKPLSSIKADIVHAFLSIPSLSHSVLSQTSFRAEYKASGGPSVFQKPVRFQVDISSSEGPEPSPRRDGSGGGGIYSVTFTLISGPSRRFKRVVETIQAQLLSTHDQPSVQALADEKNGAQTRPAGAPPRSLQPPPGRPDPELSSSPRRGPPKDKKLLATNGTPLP
In a few lines:
(§1)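 Screened at 10 µM against a 225-kinase panel; the Z′-LYTE standard assay gave percentage inhibition values.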

The next assay concerns the target T2, CSK (Homo sapiens, UniProt P41240).
T2 construct: purchased ThermoFisher (SelectScreen, Z'-LYTE)
The method, boiled down:
as §1

The next assay concerns the target T3, CSNK1G3 (CK1 gamma 3) (Homo sapiens, UniProt Q9Y6M4).
T3 construct: purchased ThermoFisher (SelectScreen, Z'-LYTE)
The method, boiled down: as §1

A further assay deals with T4, FLT1 (VEGFR1) (Homo sapiens, UniProt P17948).
T4 construct: purchased ThermoFisher (SelectScreen, Z'-LYTE)
In a few lines:
as §1

For another assay, the target named is T5, MAP2K2 (MEK2) (Homo sapiens, UniProt P36507).
T5 construct: purchased ThermoFisher (SelectScreen, Z'-LYTE)
The settings on record: 10 µM compound; ATP 100. In a few lines:
as §1

A further assay deals with T6, MAPK13 (p38 delta) (Homo sapiens, UniProt O15264).
T6 construct: purchased ThermoFisher (SelectScreen, Z'-LYTE)
T6 sequence (O15264 1-365): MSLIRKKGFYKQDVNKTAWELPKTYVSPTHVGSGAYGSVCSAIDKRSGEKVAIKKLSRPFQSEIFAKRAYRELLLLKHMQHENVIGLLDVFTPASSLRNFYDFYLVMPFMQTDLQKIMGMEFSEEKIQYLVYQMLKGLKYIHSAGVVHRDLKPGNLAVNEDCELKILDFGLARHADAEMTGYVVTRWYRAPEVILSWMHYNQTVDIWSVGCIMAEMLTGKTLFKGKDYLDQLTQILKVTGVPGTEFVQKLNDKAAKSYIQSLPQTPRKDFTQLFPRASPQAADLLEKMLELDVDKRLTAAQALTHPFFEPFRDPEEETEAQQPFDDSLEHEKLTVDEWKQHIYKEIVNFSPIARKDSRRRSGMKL
In a few lines:
as §1

In a further assay the target is T7, MARK1 (MARK) (Homo sapiens, UniProt Q9P0L2).
T7 construct: purchased ThermoFisher (SelectScreen, Z'-LYTE)
In a few lines: as §1

A further assay concerns the target T8, MKNK1 (MNK1) (Homo sapiens, UniProt Q9BUB5).
T8 construct: purchased ThermoFisher (SelectScreen, Z'-LYTE)
The method, boiled down: as §1

The target of a further assay is T9, NTRK2 (TRKB) (Homo sapiens, UniProt Q16620).
T9 construct: purchased ThermoFisher (SelectScreen, Z'-LYTE)
In a few lines:
as §1

For a further assay, the target named is T10, PDK1 (Homo sapiens, UniProt O15530).
T10 construct: purchased ThermoFisher (SelectScreen, Z'-LYTE)
T10 sequence (O15530 1-556): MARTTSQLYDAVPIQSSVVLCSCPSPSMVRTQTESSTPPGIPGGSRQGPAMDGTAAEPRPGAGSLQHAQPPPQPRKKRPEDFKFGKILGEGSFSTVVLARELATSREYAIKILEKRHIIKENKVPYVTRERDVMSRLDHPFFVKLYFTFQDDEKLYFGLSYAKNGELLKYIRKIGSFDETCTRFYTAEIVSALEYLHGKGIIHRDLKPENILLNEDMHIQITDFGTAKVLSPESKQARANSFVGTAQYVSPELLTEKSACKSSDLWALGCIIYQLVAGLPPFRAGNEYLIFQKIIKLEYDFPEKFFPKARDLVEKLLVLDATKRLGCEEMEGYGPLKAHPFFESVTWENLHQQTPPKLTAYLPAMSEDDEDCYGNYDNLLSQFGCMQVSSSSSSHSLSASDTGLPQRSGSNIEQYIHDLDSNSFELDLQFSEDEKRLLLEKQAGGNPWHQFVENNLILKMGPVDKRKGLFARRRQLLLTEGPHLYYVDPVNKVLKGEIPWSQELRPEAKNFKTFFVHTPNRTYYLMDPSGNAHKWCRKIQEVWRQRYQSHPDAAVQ
The settings on record: 10 µM compound; ATP 100. The method, boiled down: as §1

Another assay addresses T11, PKN1 (PRK1) (Homo sapiens, UniProt Q16512).
T11 construct: purchased ThermoFisher (SelectScreen, Z'-LYTE)
In a few lines: as §1

In another assay the target is T12, PRKCG (PKC gamma) (Homo sapiens, UniProt P05129).
T12 construct: purchased ThermoFisher (SelectScreen, Z'-LYTE)
In a few lines:
as §1

In another assay the target is T13, STK22B (TSSK2) (Homo sapiens, UniProt Q96PF2).
T13 construct: purchased ThermoFisher (SelectScreen, Z'-LYTE)
T13 sequence (Q96PF2 1-358): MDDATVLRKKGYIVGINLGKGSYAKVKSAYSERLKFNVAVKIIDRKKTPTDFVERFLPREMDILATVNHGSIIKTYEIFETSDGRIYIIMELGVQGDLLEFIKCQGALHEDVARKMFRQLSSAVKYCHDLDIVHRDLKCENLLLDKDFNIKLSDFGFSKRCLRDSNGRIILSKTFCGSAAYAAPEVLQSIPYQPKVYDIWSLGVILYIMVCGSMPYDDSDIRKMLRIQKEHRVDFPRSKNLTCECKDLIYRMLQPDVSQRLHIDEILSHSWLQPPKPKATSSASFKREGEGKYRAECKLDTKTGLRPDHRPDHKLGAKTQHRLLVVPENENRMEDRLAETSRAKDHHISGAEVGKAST
In a few lines: as §1

T8 sequence (Q9BUB5 whole entry): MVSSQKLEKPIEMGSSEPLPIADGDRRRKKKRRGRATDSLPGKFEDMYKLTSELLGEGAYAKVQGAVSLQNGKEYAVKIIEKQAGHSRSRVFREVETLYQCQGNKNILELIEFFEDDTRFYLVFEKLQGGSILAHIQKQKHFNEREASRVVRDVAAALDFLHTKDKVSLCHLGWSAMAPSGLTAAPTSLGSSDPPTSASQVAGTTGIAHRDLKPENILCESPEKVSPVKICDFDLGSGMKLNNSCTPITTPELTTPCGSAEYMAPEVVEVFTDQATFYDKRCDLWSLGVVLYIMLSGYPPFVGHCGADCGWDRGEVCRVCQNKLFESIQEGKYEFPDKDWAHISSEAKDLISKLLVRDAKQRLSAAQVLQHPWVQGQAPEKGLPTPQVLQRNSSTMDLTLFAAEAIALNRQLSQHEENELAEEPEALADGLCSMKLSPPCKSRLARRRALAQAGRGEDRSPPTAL
T11 sequence (Q16512 whole entry): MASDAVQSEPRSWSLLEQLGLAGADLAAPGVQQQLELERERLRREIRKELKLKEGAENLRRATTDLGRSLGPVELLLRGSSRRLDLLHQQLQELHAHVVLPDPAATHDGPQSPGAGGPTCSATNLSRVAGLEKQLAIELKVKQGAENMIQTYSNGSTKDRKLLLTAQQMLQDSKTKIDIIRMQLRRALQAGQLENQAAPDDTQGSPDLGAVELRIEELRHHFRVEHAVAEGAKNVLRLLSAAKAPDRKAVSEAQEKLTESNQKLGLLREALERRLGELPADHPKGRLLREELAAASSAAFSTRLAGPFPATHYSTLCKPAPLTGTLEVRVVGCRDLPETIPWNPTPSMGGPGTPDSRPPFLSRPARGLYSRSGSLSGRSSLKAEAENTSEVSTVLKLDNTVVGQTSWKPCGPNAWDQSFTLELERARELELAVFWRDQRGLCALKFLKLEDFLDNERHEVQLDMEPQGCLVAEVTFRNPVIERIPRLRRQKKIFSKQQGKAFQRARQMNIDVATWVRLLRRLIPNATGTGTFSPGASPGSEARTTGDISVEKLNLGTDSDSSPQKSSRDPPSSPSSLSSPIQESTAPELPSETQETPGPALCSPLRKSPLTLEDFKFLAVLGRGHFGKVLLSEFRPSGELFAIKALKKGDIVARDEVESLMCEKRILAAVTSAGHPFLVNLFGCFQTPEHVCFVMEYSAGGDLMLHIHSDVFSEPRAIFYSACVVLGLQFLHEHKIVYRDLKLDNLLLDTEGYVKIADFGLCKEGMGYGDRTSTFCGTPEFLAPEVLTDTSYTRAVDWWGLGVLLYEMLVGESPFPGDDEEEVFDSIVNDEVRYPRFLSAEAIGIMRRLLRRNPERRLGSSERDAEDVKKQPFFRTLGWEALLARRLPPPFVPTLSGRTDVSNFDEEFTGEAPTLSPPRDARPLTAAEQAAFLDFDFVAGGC
T9 sequence (Q16620 32-822): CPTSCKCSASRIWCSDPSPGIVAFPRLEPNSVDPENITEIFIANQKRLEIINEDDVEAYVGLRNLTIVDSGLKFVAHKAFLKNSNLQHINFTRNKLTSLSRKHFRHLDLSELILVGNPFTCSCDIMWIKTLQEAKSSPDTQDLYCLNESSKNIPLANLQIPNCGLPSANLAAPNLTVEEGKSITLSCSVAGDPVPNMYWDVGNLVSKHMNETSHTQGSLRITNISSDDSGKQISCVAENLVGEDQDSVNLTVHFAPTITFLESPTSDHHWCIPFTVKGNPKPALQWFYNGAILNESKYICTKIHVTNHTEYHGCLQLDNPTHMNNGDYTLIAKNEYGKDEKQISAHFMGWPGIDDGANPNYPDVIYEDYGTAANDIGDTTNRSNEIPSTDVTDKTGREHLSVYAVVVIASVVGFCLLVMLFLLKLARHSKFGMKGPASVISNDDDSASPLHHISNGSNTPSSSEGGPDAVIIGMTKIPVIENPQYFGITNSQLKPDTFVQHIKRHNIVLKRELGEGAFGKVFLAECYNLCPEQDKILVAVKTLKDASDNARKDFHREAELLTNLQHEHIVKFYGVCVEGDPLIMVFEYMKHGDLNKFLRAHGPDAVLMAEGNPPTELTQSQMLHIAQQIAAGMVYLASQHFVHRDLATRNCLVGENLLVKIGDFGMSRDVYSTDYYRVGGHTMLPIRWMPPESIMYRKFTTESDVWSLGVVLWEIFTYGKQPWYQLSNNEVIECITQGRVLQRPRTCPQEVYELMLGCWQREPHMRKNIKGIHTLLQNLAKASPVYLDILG
T4 sequence (P17948 27-1338): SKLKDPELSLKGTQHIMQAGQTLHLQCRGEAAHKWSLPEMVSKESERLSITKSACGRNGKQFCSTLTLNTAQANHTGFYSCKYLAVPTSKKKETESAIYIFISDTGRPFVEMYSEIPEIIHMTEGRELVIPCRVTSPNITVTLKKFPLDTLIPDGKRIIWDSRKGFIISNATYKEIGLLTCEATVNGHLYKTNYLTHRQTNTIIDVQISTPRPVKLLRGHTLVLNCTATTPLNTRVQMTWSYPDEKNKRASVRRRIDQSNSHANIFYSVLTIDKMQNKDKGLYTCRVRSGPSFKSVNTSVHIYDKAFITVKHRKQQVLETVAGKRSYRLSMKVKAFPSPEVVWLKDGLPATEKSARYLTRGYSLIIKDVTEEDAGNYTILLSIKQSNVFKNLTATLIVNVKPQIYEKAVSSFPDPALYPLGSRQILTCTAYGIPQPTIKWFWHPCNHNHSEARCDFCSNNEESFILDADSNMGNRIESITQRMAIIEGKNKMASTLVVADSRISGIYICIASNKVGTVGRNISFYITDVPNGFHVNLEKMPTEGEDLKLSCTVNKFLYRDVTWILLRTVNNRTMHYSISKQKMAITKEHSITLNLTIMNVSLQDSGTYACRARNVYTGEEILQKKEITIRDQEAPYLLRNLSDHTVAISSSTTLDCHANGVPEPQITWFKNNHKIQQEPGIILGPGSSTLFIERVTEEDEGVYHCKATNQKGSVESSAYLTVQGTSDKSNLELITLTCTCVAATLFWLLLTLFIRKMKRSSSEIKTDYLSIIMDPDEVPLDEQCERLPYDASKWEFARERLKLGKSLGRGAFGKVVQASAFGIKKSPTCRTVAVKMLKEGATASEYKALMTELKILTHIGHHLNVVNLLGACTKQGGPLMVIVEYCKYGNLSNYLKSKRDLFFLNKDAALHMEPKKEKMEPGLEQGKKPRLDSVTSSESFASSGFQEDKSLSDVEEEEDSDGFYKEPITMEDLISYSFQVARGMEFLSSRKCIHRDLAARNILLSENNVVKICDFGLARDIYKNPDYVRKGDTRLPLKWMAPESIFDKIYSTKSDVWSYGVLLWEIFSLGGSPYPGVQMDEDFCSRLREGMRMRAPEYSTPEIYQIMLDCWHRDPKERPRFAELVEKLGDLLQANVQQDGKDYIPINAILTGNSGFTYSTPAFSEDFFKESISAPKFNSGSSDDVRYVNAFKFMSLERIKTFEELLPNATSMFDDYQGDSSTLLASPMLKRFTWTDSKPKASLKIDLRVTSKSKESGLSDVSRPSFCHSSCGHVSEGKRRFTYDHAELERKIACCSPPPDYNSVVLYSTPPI
T2 sequence (P41240 whole entry): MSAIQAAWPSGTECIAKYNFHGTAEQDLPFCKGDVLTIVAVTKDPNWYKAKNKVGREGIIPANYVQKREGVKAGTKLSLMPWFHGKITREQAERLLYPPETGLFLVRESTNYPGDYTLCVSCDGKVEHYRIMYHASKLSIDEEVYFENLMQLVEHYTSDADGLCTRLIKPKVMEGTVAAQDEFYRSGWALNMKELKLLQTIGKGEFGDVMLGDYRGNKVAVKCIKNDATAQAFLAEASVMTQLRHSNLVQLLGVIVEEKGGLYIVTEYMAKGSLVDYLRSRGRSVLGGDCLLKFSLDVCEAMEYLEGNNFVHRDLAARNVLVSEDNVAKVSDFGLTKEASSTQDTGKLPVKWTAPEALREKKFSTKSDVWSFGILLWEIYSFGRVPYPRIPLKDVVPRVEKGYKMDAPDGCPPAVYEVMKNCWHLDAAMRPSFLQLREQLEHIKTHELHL

For the molecule `Cc1ncc(-c2nc(Nc3ccc(C(=O)NCCN4CCCCC4)cc3)ncc2F)n1C(C)C` [Compound 3], the inhibition at 10 µM was 91% on BRSK1 (SAD1); 29% against CSK; 89% on CSNK1G3 (CK1 gamma 3); 73% on FLT1 (VEGFR1); 94% against MAP2K2 (MEK2); 65% against MAPK13 (p38 delta). The inhibition at 10 µM on MARK1 (MARK) turned out to be 87%; on MKNK1 (MNK1), 68%; against NTRK2 (TRKB), 87%; against PDK1, 50%; on PKN1 (PRK1) it was 62%; at PRKCG (PKC gamma) it was 89%. Also, the inhibition at 10 µM against STK22B (TSSK2) was -7%.
For `Cc1cc(Nc2nc(N)nn2C(=O)NC(C)C)ccc1Cl` [Compound 5], the inhibition at 10 µM on BRSK1 (SAD1) is 35%; at CSK, 16%; at CSNK1G3 (CK1 gamma 3) it was 17%; on FLT1 (VEGFR1), 34%; against MAP2K2 (MEK2), 21%; on MAPK13 (p38 delta), -0.07%. Also, the inhibition at 10 µM against MARK1 (MARK) is 17%; on MKNK1 (MNK1), 7%; against NTRK2 (TRKB), 29%; on PDK1, 8%; on PKN1 (PRK1), -3.54%; against PRKCG (PKC gamma), 10%. For the same molecule, the inhibition at 10 µM at STK22B (TSSK2) was -10%.
Consider “XMD8-92 [Compound 2, reference compound]”, for which the “BRSK1 (SAD1) % Inhibition” value on BRSK1 (SAD1) (10 µM compound, ATP Km app) is reported as 80%. Also, the “CSK % Inhibition” value on CSK (10 µM compound, ATP Km app) was 11%. The “CSNK1G3 (CK1 gamma 3) % Inhibition” value on CSNK1G3 (CK1 gamma 3) (10 µM compound, ATP Km app) is listed as 31%. For the same molecule, the “FLT1 (VEGFR1) % Inhibition” value on FLT1 (VEGFR1) (10 µM compound, ATP Km app) is listed as -1.58%. Further, the “MAP2K2 (MEK2) % Inhibition” value on MAP2K2 (MEK2) was determined as 24%. For the same molecule, the “MAPK13 (p38 delta) % Inhibition” value at MAPK13 (p38 delta) (10 µM compound, ATP Km app) came out at 1.54%. Also, the “MARK1 (MARK) % Inhibition” value at MARK1 (MARK) (10 µM compound, ATP Km app) is given as 11%. For the same molecule, the “MKNK1 (MNK1) % Inhibition” value at MKNK1 (MNK1) (10 µM compound, ATP Km app) came to 3.65%. Moreover, at NTRK2 (TRKB) (10 µM compound, ATP Km app), the “NTRK2 (TRKB) % Inhibition” value is 81%. Also, the “PDK1 % Inhibition” value at PDK1 is 21%. Further, at PKN1 (PRK1) (10 µM compound, ATP Km app), the “PKN1 (PRK1) % Inhibition” value is reported as 1.26%. Besides, the “PRKCG (PKC gamma) % Inhibition” value on PRKCG (PKC gamma) (10 µM compound, ATP Km app) was 62%. Moreover, the “STK22B (TSSK2) % Inhibition” value at STK22B (TSSK2) (10 µM compound, ATP Km app) was -0.837%.
